# In patent US11673139B2, “Microfluidic platforms for drug discovery” (UVic Industry Partnerships Inc., priority 2020, dated 2023):
# Test: Passive diffusion of fluorophore through tripartite DIB network (intestinal space, enterocyte, blood compartments)
# Type: in vitro ADME
# Parameters: half-life: dose or concentration left out as unconfirmed
# Text: The first droplet 12 can mimic the intestinal space, the second droplet 14 can mimic an enterocyte, and the third droplet 16 can mimic the blood. The interior of each droplet 12, 14, 16 comprises a buffer (see Table 1) that mimics the pH and salt composition of the respective compartment. The barrier layer or artificial membrane between each pair of adjacent droplets can be an equal mixture of the phospholipids L-α-phosphatidylcholine (PC) and L-α-phosphatidylethanolamine (PE). The size of the droplets 116 can mimic the volume of human cells.
# To prepare the lipid solutions, chloroform was removed from the lipid stock solutions by placing 10 mg (e.g., 400 μL of a 25 mgmL^−1 solution) of lipids in a 10 mL glass roundbottom flask, and rotating the flask under a stream of nitrogen gas to create a thin film. The flask was then placed in a desiccator under vacuum for 1 hour to remove residual solvent. […]
# During use, the microfluidic devices were mounted in a heating platform set to 37° C. on a microscope stage (e.g., a Nikon Eclipse Ti2-E or a Nikon Eclipse Ti2-U inverted microscope) for visualization. […] Fluorescence and brightfield images for fluorescence experiments were captured using a measurement camera (e.g., a Hamamatsu ORCA Flash4.0 V3, with a Solis 1C cold white LED (e.g., from Thorlabs) and a GFP SemrockBrightline large field of view filter cube (e.g., from Nikon).
# Reagents were introduced into the microfluidic devices using a pressure pump (e.g., an Elveflow OB1 MK3 pressure pump), four 1.5 mL Eppendorf tubes as reservoirs and four matched lengths of PTFE tubing. […] Following equilibration, the main chamber was monitored in Motion Blitz Director for quantification of device performance, and NIS Elements Advanced Research (Nikon, version 5.11.01) for fluorescence data collection. Following formation of a tripartite DIB network for a fluorescence experiment, flow was stopped from all reservoirs from within the Elveflow control software. […]
smiles,measurement,setting,value
O=C1OC2(c3ccc(O)cc3Oc3cc(O)ccc32)c2ccccc21 [fluorescein],compartment preference in control triplets,100 µM,clear preference for pH 7.4 compartments
same,Papp,"DIB network treated as two compartment model, intestinal space to enterocyte droplet, Equation (3), data of FIG. 6",(5.5±0.8)×10^−5 cms^−1
same,half-life,"DIB network, intestinal space droplet (pH 6.5) into enterocyte droplet (pH 7.4), 37° C., exponential curve fit, FIG. 5, read-out: half-life (t1/2) of the fluorophore in the intestinal space (converted)",1.8 min
